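Tested at 5 concentrations; 48 h exposure; 96-well plates; endpoints linearly interpolated, else capped at highest concentration. GI50 marks 50% less growth. TGI: concentration producing complete growth inhibition.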
What was measured:
Assay in all cases: growth of human tumour cells (NCI), 48 h
[1] = tested on: KM12 colon
[2] = tested on: UO-31 renal
[3] = tested on: BT-549 breast
[4] = tested on: MALME-3M melanoma
[5] = tested on: 786-0 renal
[6] = tested on: SF-268 CNS
[7] = tested on: HCT-15 colon
[8] = tested on: ACHN renal
[9] = tested on: SK-OV-3 ovarian
[10] = tested on: SK-MEL-5 melanoma
[11] = tested on: K-562 leukemia
[12] = tested on: A549 NSCLC
[13] = tested on: HT29 colon
[14] = tested on: OVCAR-4 ovarian
[15] = tested on: NCI-H226 lung
[16] = tested on: SR leukemia
[17] = tested on: HCC-2998 colon
[18] = tested on: MCF7 breast
[19] = tested on: SW-620 colon
[20] = tested on: SK-MEL-2 melanoma
[21] = tested on: MDA-MB-435
[22] = tested on: SF-295 CNS
[23] = tested on: NCI/ADR-RES ovarian
[24] = tested on: SK-MEL-28 melanoma
[25] = tested on: SNB-75 CNS
[26] = tested on: CCRF-CEM leukemia
[27] = tested on: RXF 393 renal
[28] = tested on: A498 renal
[29] = tested on: NCI-H460 lung
[30] = tested on: MDA-MB-231 breast
[31] = tested on: PC-3 prostate
[32] = tested on: OVCAR-3 ovarian
[33] = tested on: UACC-62 melanoma
[34] = tested on: LOX IMVI melanoma
[35] = tested on: DU-145 prostate
[36] = tested on: CAKI-1 renal
[37] = tested on: HS 578T breast
[38] = tested on: EKVX NSCLC
[39] = tested on: OVCAR-8 ovarian
[40] = tested on: SF-539 CNS
[41] = tested on: MOLT-4 leukemia
[42] = tested on: SN12C renal
[43] = tested on: TK-10 renal
[44] = tested on: RPMI-8226 leukemia
[45] = tested on: NCI-H522 lung
[46] = tested on: NCI-H23 lung
[47] = tested on: HCT-116 colon
[48] = tested on: OVCAR-5 ovarian
[49] = tested on: HL-60(TB) leukemia
[50] = tested on: U251 CNS
[51] = tested on: HOP-62 NSCLC
[52] = tested on: COLO 205 colon
[53] = tested on: IGROV1 ovarian
[54] = tested on: UACC-257 melanoma
[55] = tested on: SNB-19 CNS
[56] = tested on: T-47D breast
[57] = tested on: HOP-92 NSCLC
[58] = tested on: M14 melanoma

COc1ccc(C(=O)Nc2ncc(Cc3ccccc3Cl)s2)cc1
GI50 [1]: 0.14 µM | TGI [1]: 23 µM | GI50 [2]: 0.696 µM | TGI [2]: 38.1 µM | GI50 [3]: 0.427 µM | TGI [3]: 11 µM | GI50 [4]: 1.12 µM | TGI [4]: 23.1 µM | GI50 [5]: 0.4 µM | TGI [5]: 22.6 µM | GI50 [6]: 1.58 µM | TGI [6]: 58.3 µM | GI50 [7]: 0.0593 µM | TGI [7]: 13.2 µM | GI50 [8]: 0.502 µM | TGI [8]: 18.3 µM | GI50 [9]: 0.372 µM | TGI [9]: 16.6 µM | GI50 [10]: 0.307 µM | TGI [10]: 6.44 µM | GI50 [11]: 0.06 µM | TGI [11]: > 100 µM | GI50 [12]: 0.435 µM | TGI [12]: > 47.4 µM | GI50 [13]: 0.128 µM | TGI [13]: 2.23 µM | GI50 [14]: 2.07 µM | TGI [14]: 30 µM | GI50 [15]: 0.283 µM | TGI [15]: 2.53 µM | GI50 [16]: 0.0398 µM | TGI [16]: > 100 µM | GI50 [17]: 0.24 µM | TGI [17]: 3.66 µM | GI50 [18]: 0.137 µM | TGI [18]: > 34.5 µM | GI50 [19]: 0.106 µM | TGI [19]: > 100 µM | GI50 [20]: 0.176 µM | TGI [20]: 3.83 µM | GI50 [21]: 0.0316 µM | TGI [21]: 0.122 µM | GI50 [22]: 0.214 µM | TGI [22]: 6.43 µM | GI50 [23]: 0.145 µM | TGI [23]: 3.79 µM | GI50 [24]: 1.55 µM | TGI [24]: > 66.4 µM | GI50 [25]: 0.201 µM | TGI [25]: 6.02 µM | GI50 [26]: 0.148 µM | TGI [26]: > 100 µM | GI50 [27]: 0.126 µM | TGI [27]: 1.41 µM | GI50 [28]: 6.54 µM | TGI [28]: 33.7 µM | GI50 [29]: 0.147 µM | TGI [29]: 5.2 µM | GI50 [30]: 0.437 µM | TGI [30]: 20 µM | GI50 [31]: 0.274 µM | TGI [31]: > 68.4 µM | GI50 [32]: 0.191 µM | TGI [32]: 5.22 µM | GI50 [33]: 0.127 µM | TGI [33]: 16.3 µM | GI50 [34]: 0.259 µM | TGI [34]: > 35 µM | GI50 [35]: 0.415 µM | TGI [35]: 14.2 µM | GI50 [36]: 0.138 µM | TGI [36]: 16.6 µM | GI50 [37]: 0.309 µM | TGI [37]: 23.6 µM | GI50 [38]: 1.79 µM | TGI [38]: 38.6 µM | GI50 [39]: 0.462 µM | GI50 [40]: 0.179 µM | TGI [40]: 0.842 µM | GI50 [41]: 0.266 µM | TGI [41]: > 100 µM | GI50 [42]: 0.309 µM | TGI [42]: 20.4 µM | GI50 [43]: 11.9 µM | TGI [43]: 41.1 µM | GI50 [44]: 0.27 µM | TGI [44]: > 100 µM | GI50 [45]: 0.118 µM | TGI [45]: 0.387 µM | GI50 [46]: 0.625 µM | TGI [46]: 30.5 µM | GI50 [47]: 0.114 µM | TGI [47]: 15.7 µM | GI50 [48]: 0.406 µM | TGI [48]: 22.6 µM | GI50 [49]: 0.0873 µM | TGI [49]: 1.95 µM | GI50 [50]: 0.288 µM | TGI [50]: 23.1 µM | GI50 [51]: 0.667 µM | TGI [51]: 18.7 µM | GI50 [52]: 0.264 µM | TGI [52]: 1.03 µM | GI50 [53]: 0.486 µM | TGI [53]: 26.8 µM | GI50 [54]: 5.87 µM | TGI [54]: > 65.5 µM | GI50 [55]: 0.404 µM | TGI [55]: 19.2 µM | GI50 [56]: 2.09 µM | TGI [56]: > 56.7 µM | GI50 [57]: 11.8 µM | TGI [57]: > 80.2 µM | GI50 [58]: 0.162 µM | TGI [58]: > 36.6 µM

COc1ccc(-n2c(SCC(=O)Nc3ccc(-c4nc5ccccc5[nH]4)cc3)nc3ccccc3c2=O)cc1
GI50 [1]: 51.4 µM | TGI [1]: > 100 µM | GI50 [2]: 11.8 µM | TGI [2]: 29.1 µM | GI50 [3]: 8.06 µM | TGI [3]: 24.5 µM | GI50 [4]: 2.58 µM | TGI [4]: 16.2 µM | GI50 [5]: 17.7 µM | TGI [5]: 34.2 µM | GI50 [6]: 42.9 µM | TGI [6]: > 100 µM | GI50 [7]: 2.95 µM | TGI [7]: 12 µM | GI50 [8]: 17.1 µM | TGI [8]: 33.7 µM | GI50 [9]: > 100 µM | TGI [9]: > 100 µM | GI50 [10]: 14 µM | TGI [10]: 30.4 µM | GI50 [11]: 4.82 µM | TGI [11]: > 100 µM | GI50 [12]: 3.58 µM | TGI [12]: 14.2 µM | GI50 [13]: 15 µM | TGI [13]: 36.5 µM | GI50 [14]: 7.74 µM | TGI [14]: 20.8 µM | GI50 [15]: > 100 µM | TGI [15]: > 100 µM | GI50 [17]: 14.3 µM | TGI [17]: 46 µM | GI50 [18]: 2.05 µM | TGI [18]: 5.11 µM | GI50 [19]: 6.63 µM | TGI [19]: 42.5 µM | GI50 [20]: 50.7 µM | TGI [20]: > 100 µM | GI50 [21]: 9.17 µM | TGI [21]: 27.6 µM | GI50 [22]: 13.3 µM | TGI [22]: 27.9 µM | GI50 [23]: 16.7 µM | TGI [23]: > 100 µM | GI50 [24]: 3.52 µM | TGI [24]: 13.4 µM | GI50 [25]: 19.9 µM | TGI [25]: 91.9 µM | GI50 [26]: 6.15 µM | TGI [26]: > 100 µM | GI50 [27]: 12.7 µM | TGI [27]: 27.3 µM | GI50 [28]: > 100 µM | TGI [28]: > 100 µM | GI50 [29]: 3.39 µM | TGI [29]: 12.1 µM | GI50 [30]: 16.2 µM | TGI [30]: 49.6 µM | GI50 [31]: 18 µM | TGI [31]: 62.9 µM | GI50 [32]: 18 µM | TGI [32]: 39.7 µM | GI50 [33]: 15.8 µM | TGI [33]: 30.5 µM | GI50 [34]: 2.1 µM | TGI [34]: 3.91 µM | GI50 [35]: 10.9 µM | TGI [35]: 33 µM | GI50 [36]: 29.7 µM | TGI [36]: > 100 µM | GI50 [37]: 21.6 µM | TGI [37]: 71.5 µM | GI50 [38]: 47.2 µM | TGI [38]: > 100 µM | GI50 [39]: 18.1 µM | TGI [39]: 39.6 µM | GI50 [40]: 14.1 µM | TGI [40]: 27.8 µM | GI50 [41]: 5.85 µM | TGI [41]: > 100 µM | GI50 [42]: 11.3 µM | TGI [42]: 25.6 µM | GI50 [43]: 21.6 µM | TGI [43]: 42 µM | GI50 [44]: 3.72 µM | TGI [44]: 70.5 µM | GI50 [45]: 14.5 µM | TGI [45]: 32.3 µM | GI50 [46]: 10.2 µM | TGI [46]: 35.1 µM | GI50 [47]: 4.88 µM | TGI [47]: 26.2 µM | GI50 [48]: 23.7 µM | TGI [48]: > 100 µM | GI50 [49]: 9.91 µM | TGI [49]: > 100 µM | GI50 [50]: 15.1 µM | TGI [50]: 31.5 µM | GI50 [51]: 23.3 µM | TGI [51]: 59.6 µM | GI50 [52]: 28.3 µM | TGI [52]: 76.6 µM | GI50 [53]: 15.2 µM | TGI [53]: 42.9 µM | GI50 [54]: 19 µM | TGI [54]: 39.2 µM | GI50 [55]: 17.9 µM | TGI [55]: 60.2 µM | GI50 [56]: 17.3 µM | TGI [56]: 36.7 µM | GI50 [57]: 12.7 µM | TGI [57]: 31.3 µM | GI50 [58]: 13.1 µM | TGI [58]: 55.5 µM

Source: PubChem BioAssay (NCI)
